Laboratory results published in ChEMBL document CHEMBL1201862, “PubChem BioAssay data set” (2004).
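Growth conditions: 96-well plates. Treatment: test compound, 48 hours, 5 concentrations. Analysis: linear interpolation between bracketing concentrations; unreached endpoints set to highest concentration. Here, GI50 denotes the concentration required for 50% inhibition of growth.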 The source made the active and inactive calls. Rule as the data show it: active = GI50 up to about 1.1 µM and inactive = higher.

Assays:
Assay in all cases: inhibition of tumour cell growth, NCI panel, 48 h
[1] = test system: K562
[2] = test system: SK-MEL-5
[3] = test system: COLO 205
[4] = test system: SK-MEL-28
[5] = test system: PC-3
[6] = test system: SK-MEL-2
[7] = test system: SK-OV-3
[8] = test system: SF-539
[9] = test system: MDA-N
[10] = test system: HOP-62
[11] = test system: NCI-H522
[12] = test system: DU-145
[13] = test system: SF-295
[14] = test system: A498
[15] = test system: UACC-62
[16] = test system: NCI-H460
[17] = test system: ACHN
[18] = test system: NCI-H23
[19] = test system: 786-0
[20] = test system: DLD-1

Row | Structure (SMILES) | GI50 [1] | GI50 [2] | GI50 [3] | GI50 [4] | GI50 [5] | GI50 [6] | GI50 [7] | GI50 [8] | GI50 [9] | GI50 [10] | GI50 [11] | GI50 [12] | GI50 [13] | GI50 [14] | GI50 [15] | GI50 [16] | GI50 [17] | GI50 [18] | GI50 [19] | GI50 [20]
1 | O=C1c2ccccc2C(=O)N1CCCSc1ccccc1 | 77.1 µM (inactive) | 32.7 µM (inactive) | 66.1 µM (inactive) | > 100 µM (inactive) | 92 µM (inactive) | > 100 µM (inactive) | > 100 µM (inactive) | > 100 µM (inactive) | 91.4 µM (inactive) | > 100 µM (inactive) | 66.8 µM (inactive) | > 100 µM (inactive) | 22.6 µM (inactive) | 33 µM (inactive) | 71.6 µM (inactive) | 90.6 µM (inactive) | > 100 µM (inactive) | 86.7 µM (inactive) | > 100 µM (inactive) | 
2 | CC(=O)OC1COC(n2c(=S)n(-c3ccc(C)cc3)c(=O)c3ccccc32)C(OC(C)=O)C1OC(C)=O (centres undefined) |  | > 100 µM (inactive) | > 100 µM (inactive) | > 100 µM (inactive) |  | > 100 µM (inactive) | > 100 µM (inactive) | > 100 µM (inactive) |  | > 100 µM (inactive) | > 100 µM (inactive) |  | 85.5 µM (inactive) | > 100 µM (inactive) | > 100 µM (inactive) | > 100 µM (inactive) | > 100 µM (inactive) | > 100 µM (inactive) | > 100 µM (inactive) | > 100 µM (inactive)
3 | CN(C)c1ccc(/C(F)=C(F)/C(F)=C(F)/C(F)=C(\F)c2ccc(Br)cc2)cc1 | 13.2 µM (inactive) | 25.3 µM (inactive) | 23.4 µM (inactive) | > 100 µM (inactive) | 15.2 µM (inactive) | 25.9 µM (inactive) | 30.1 µM (inactive) | 33 µM (inactive) | 2.43 µM (inactive) | 37.2 µM (inactive) | 7.46 µM (inactive) | 19.4 µM (inactive) | 6.98 µM (inactive) | 16.7 µM (inactive) | 22.9 µM (inactive) | 26.2 µM (inactive) | 52.8 µM (inactive) | 14.8 µM (inactive) | 3.92 µM (inactive) | 
4 | O=S(=O)(N/N=C/c1cccc(/C=N/NS(=O)(=O)c2ccccc2)c1)c1ccccc1 | 60.4 µM (inactive) | 39.2 µM (inactive) | 38.3 µM (inactive) | 88.7 µM (inactive) |  | > 100 µM (inactive) | > 100 µM (inactive) | > 100 µM (inactive) |  | > 100 µM (inactive) |  |  | 28 µM (inactive) | > 100 µM (inactive) | 85.9 µM (inactive) | 68.7 µM (inactive) | 68.7 µM (inactive) | 87.1 µM (inactive) | > 100 µM (inactive) | 81.5 µM (inactive)
5 | CC(=O)Nc1ccc2nc(N)n[n+]([O-])c2c1 | > 100 µM (inactive) | > 100 µM (inactive) | > 100 µM (inactive) | > 100 µM (inactive) | > 100 µM (inactive) | > 100 µM (inactive) | > 100 µM (inactive) | > 100 µM (inactive) | > 100 µM (inactive) | > 100 µM (inactive) | > 100 µM (inactive) | > 100 µM (inactive) | > 100 µM (inactive) | > 100 µM (inactive) | > 100 µM (inactive) | > 100 µM (inactive) | > 100 µM (inactive) | > 100 µM (inactive) | > 100 µM (inactive) | 
6 | Cc1[nH]c2ccccc2c1-c1n[nH]c(=O)c2ccccc12 | 5.25 µM (inactive) | 15.5 µM (inactive) |  | 26.5 µM (inactive) |  | 31.7 µM (inactive) | 25.1 µM (inactive) | 24.3 µM (inactive) |  | 6.56 µM (inactive) |  |  | 23.3 µM (inactive) | 19.8 µM (inactive) | 19.5 µM (inactive) | 22.9 µM (inactive) | 25.7 µM (inactive) | 26 µM (inactive) | 27 µM (inactive) | 15.9 µM (inactive)
7 | CC1OC(OC2C(CO)OC(O[C@H]3CC[C@@]4(C)C(=CC[C@H]5[C@@H]6C[C@@H]7O[C@](O)(CC[C@H](CO)COC8OC(CO)C(O)C(O)C8O)[C@@H](C)[C@@H]7[C@@]6(C)CC[C@@H]54)C3)C(OC3OC(C)C(O)C(O)C3O)C2O)C(O)C(O)C1O (some centres undefined) | > 100 µM (inactive) | > 100 µM (inactive) | > 100 µM (inactive) | > 100 µM (inactive) | > 100 µM (inactive) | > 100 µM (inactive) | > 100 µM (inactive) | > 100 µM (inactive) | > 100 µM (inactive) | > 100 µM (inactive) | > 100 µM (inactive) | > 100 µM (inactive) | > 100 µM (inactive) | > 100 µM (inactive) | > 100 µM (inactive) | > 100 µM (inactive) | > 100 µM (inactive) | > 100 µM (inactive) | > 100 µM (inactive) | 
8 | Cc1cc(Nc2ccc(/N=N/c3ccc(O)c4ncccc34)cc2)nc(C)n1 | 3.78 µM (inactive) | 10.8 µM (inactive) | 20.8 µM (inactive) | 11.2 µM (inactive) | 14.4 µM (inactive) | 13.8 µM (inactive) | 23.9 µM (inactive) | 3.99 µM (inactive) | 6.62 µM (inactive) | 15.9 µM (inactive) | 10.7 µM (inactive) | 18.2 µM (inactive) | 18.6 µM (inactive) | 21.6 µM (inactive) | 6.38 µM (inactive) | 6.93 µM (inactive) | 8.22 µM (inactive) | 7.24 µM (inactive) | 12.6 µM (inactive) | 
9 | O=c1c(C(c2ccc([N+](=O)[O-])cc2)c2c(O)c3ccccc3n(-c3ccccc3)c2=O)c(O)c2ccccc2n1-c1ccccc1 | 16.6 µM (inactive) | 11.4 µM (inactive) | 23.2 µM (inactive) | 16.5 µM (inactive) |  | 14.5 µM (inactive) | 7.38 µM (inactive) | 12.6 µM (inactive) |  | 14.5 µM (inactive) | 22.2 µM (inactive) |  | 12.5 µM (inactive) |  | 3.76 µM (inactive) |  | 13.9 µM (inactive) | 11.2 µM (inactive) | 11.6 µM (inactive) | 6.41 µM (inactive)
10 | NC(=O)C(=O)C1C(=O)N(c2ccccc2)N=C1N (centres undefined) | > 100 µM (inactive) |  | > 100 µM (inactive) | > 100 µM (inactive) |  | > 100 µM (inactive) | > 100 µM (inactive) | > 100 µM (inactive) |  | > 100 µM (inactive) | > 100 µM (inactive) |  | > 100 µM (inactive) |  | > 100 µM (inactive) | > 100 µM (inactive) | 49.4 µM (inactive) | > 100 µM (inactive) | > 100 µM (inactive) | > 100 µM (inactive)
11 | O=C(O)c1nc(-c2ccccc2)ncc1-c1nnnn1-c1ccccc1 | > 100 µM (inactive) | > 100 µM (inactive) | > 100 µM (inactive) | > 100 µM (inactive) | > 100 µM (inactive) | > 100 µM (inactive) | > 100 µM (inactive) | > 100 µM (inactive) | > 100 µM (inactive) | > 100 µM (inactive) | > 100 µM (inactive) | > 100 µM (inactive) | > 100 µM (inactive) | > 100 µM (inactive) | > 100 µM (inactive) | > 100 µM (inactive) | > 100 µM (inactive) | > 100 µM (inactive) | > 100 µM (inactive) | 
12 | CN(C)CC1(C)CC/C(=C\c2ccc3c(c2)OCO3)C1=O (centres undefined) | 53.6 µM (inactive) | > 100 µM (inactive) | > 100 µM (inactive) | > 100 µM (inactive) |  | > 100 µM (inactive) |  | > 100 µM (inactive) |  | > 100 µM (inactive) | 39.5 µM (inactive) |  | > 100 µM (inactive) | > 100 µM (inactive) | 67.3 µM (inactive) | > 100 µM (inactive) | > 100 µM (inactive) | > 100 µM (inactive) | > 100 µM (inactive) | > 100 µM (inactive)
13 | COC(=O)CCC(=O)c1ccc2c(c1)CC1(C2)Cc2ccc3c(c2C1)CCCC3=O (centres undefined) | 2.88 µM (inactive) | 10.5 µM (inactive) | 21.5 µM (inactive) | 25.5 µM (inactive) | 24.3 µM (inactive) | 7.31 µM (inactive) | 50.6 µM (inactive) | 11.9 µM (inactive) | 4.85 µM (inactive) | > 53.5 µM (inactive) | 21.4 µM (inactive) | 33.7 µM (inactive) | 26 µM (inactive) | 20.7 µM (inactive) | > 26.1 µM (inactive) | 25.2 µM (inactive) | 21.1 µM (inactive) | 31 µM (inactive) | 29.9 µM (inactive) | 
14 | COc1ccc(/C=C(/C(=O)c2ccc(Cl)cc2)N2C=CC=CC2=C(C#N)C#N)cc1OC | 0.698 µM (active) | 9.25 µM (inactive) | 1.58 µM (inactive) | 3.4 µM (inactive) | 2.74 µM (inactive) | 15.3 µM (inactive) | 24.4 µM (inactive) | 3.92 µM (inactive) | 4.55 µM (inactive) | 20.5 µM (inactive) | 0.243 µM (active) | 13.7 µM (inactive) | 28.5 µM (inactive) | 14.9 µM (inactive) | 14.9 µM (inactive) | 12.9 µM (inactive) | 3.31 µM (inactive) | 11.5 µM (inactive) | 1.94 µM (inactive) | 
15 | CC1ON2CCCC2[C@H]1C(=O)N1C2CC3CCC2(CS1(=O)=O)C3(C)C (some centres undefined) | > 100 µM (inactive) | > 100 µM (inactive) | > 100 µM (inactive) | > 100 µM (inactive) | > 100 µM (inactive) | > 100 µM (inactive) | > 100 µM (inactive) | > 100 µM (inactive) | > 100 µM (inactive) | > 100 µM (inactive) | > 100 µM (inactive) | > 100 µM (inactive) | > 100 µM (inactive) | > 100 µM (inactive) | > 100 µM (inactive) | > 100 µM (inactive) | > 100 µM (inactive) | > 100 µM (inactive) | > 100 µM (inactive) | 
